Key:
[1] = In vivo delivery of lipid-nucleic acid mixture (PGY-sRNA-26) by gavage, relative intake in blood and tissues by RT-qPCR; set-up: species or system C57BL/6 male mice; details: for oral delivery of sRNA single-chain nucleic acid into the blood, and lung, kidney, spleen, heart, and intestinal tissue of mice / oral delivery of sRNA single-chain nucleic acid into the blood, and lung, kidney, spleen, and heart tissues of mice: 100 μg lipid:1 nmol PGY-sRNA-26 per mouse, 12 hrs after gavage, vs free intake group; for number of organs into which nucleic acid is significantly delivered: among the 6 organs in the experiments
Description: The concentration of a lipid solution in chloroform was 10 mg/ml (stock solution), and grouping was performed according to the lipid compound number.
(§1) 1 nmol of small RNA (as shown in Table 2) was dissolved in 400 μl of DEPC-treated water in a glass tube, and 10 μl of a corresponding lipid stock solution was added, to give a system containing 100 μg of lipid. The system was well mixed, heated for 15 min in a water bath at 90° C., and then naturally cooled, to obtain a lipid-nucleic acid mixture of the lipid and small RNA.
(§2) The C57BL/6 male mice used in the experiment were purchased from Beijing Vital River Laboratory Animal Technology Co., Ltd., about 6 weeks old, and weighed 20-24 g. They were kept in an SPF animal room of the Animal Center of the Institute of Basic Medical Sciences, Chinese Academy of Medical Sciences. The mice were fasted for 12 hrs before gavage.
(§3) The lipid-nucleic acid mixture was prepared following the method as described in Example 2. The prepared lipid-nucleic acid mixture was orally administered at a dose of 100 μg lipid:1 nmol single-stranded small RNA PGY-sRNA-26 per mouse.
1) Blank group: Mice (n=4) were given 500 μl of normal saline by gavage, and this group served as a blank control group;
2) Free intake group: Mice (n=4) were given sRNA solution (1 nmol/animal, 500 μl) by direct gavage, and this group served as a negative control group;
3) Lipid treatment group: Mice (n=4) were given 500 μl of the lipid-nucleic acid mixture prepared in step 2 by gavage.
12 hrs after gavage in each group of mice, 500 μl of blood was taken from the eyeball, and 1.5 ml of Trizol Reagent LS (purchased from Invitrogen) was added and mixed well for lysis. The tissue sample was added with 3 ml of Trizol Reagent LS. and homogenized for full lysis, wherein the tissue sample included lung/kidney/spleen/heart/gut. 1 ml of blood or tissue lysate was taken and RNA was extracted according to the following steps.
The blood or tissue lysate was centrifuged at 4° C., and 12,000 rpm for 5 min, the pellet was discarded, and Trizol was transferred to a new centrifuge tube.
Chloroform was added in an amount of 200 μL chloroform/mL Trizol, shaken fully until uniform, and allowed to stand at room temperature for 5 min.
The sample was centrifuged at 4° C., and 12,000 rpm, for 15 min.
The upper aqueous phase was pipetted to another centrifuge tube, and isopropanol was added in an amount of 0.4 mL isopropanol/mL Trizol, mixed well, and allowed to stand at a low temperature for 10-20 min.
The sample was centrifuged at 4° C., and 12,000 rpm, for 15 min, the supernatant was discarded, and the RNA pellet was at the bottom of the tube.
1 mL of 75% ethanol was added, and the centrifuge tube was shaken gently, to suspend the pellet.
The sample was centrifuged at 4° C., and 12,000 rpm, for 10 min, the supernatant was discarded, 1 mL of 75% ethanol was added, and the centrifuge tube was shaken gently, to suspend the pellet.
The sample was centrifuged at 4° C., and 12,000 rpm, for 10 min, the supernatant was discarded, and the sample was air dried at room temperature. The RNA sample was dissolved in 50-100 μL of RNase-free H2O, and the RNA concentration was quantified by determining the OD value.
The sRNA was reversely transcribed into cDNA using a reverse transcription kit (High-Capacity cDNA Reverse Transcription Kits, Applied Biosystems, cat. no. 4368813), following the stem-loop method (see, for example Real-time quantification of microRNAs by stem-loop RT-PCR, Nucleic Acids Res. 2005 Nov. 27; 33(20):e179, incorporated herein by reference). System for reverse transcription: template RNA (200 ng/μL) 10 μL, 10×RT buffer 2.0 μL, 25×dNTP Mix (100 mM) 0.8 μL, U6 RT stem-loop primer 2.0 μL, PGY-sRNA-26 RT stem-loop primer 2.0 μL, MultiScribe™ reverse transcriptase 1.0 μL, RNAase inhibitor 1.0 μL, and nuclease-free water H2O 1.2 μL. […]

[2] = Pharmacokinetic study of lipid-nucleic acid mixture, gavage group, relative amount of PGY-sRNA-26 delivered to organs over time; assay type: in vivo, C57BL/6 male mice; details: sampled at 3, 6, 9, 12, 24 hrs
Description: as §1, §2
as §3, with “administered or injected via the tail vein” for “administered”, “mouse. The oral dose was half that of the tail vein injection.” for “mouse.”
(§4) 1) Blank group: Mice (n=6) were given 500 μl of normal saline by gavage, and this group served as a blank control group;
2) Gavage group: Mice (n=15) were given 200 μl of the lipid-nucleic acid mixture prepared in step 2 by gavage.
(§5) At 3 hrs, 6 hrs, 9 hrs, 12 hrs and 24 hrs after administration in the gavage group and the intravenous injection group, 3 mice were taken and the RNA was extracted from each organ according to the method in Example 3.
(§6) The RNA extracted from each organ was reverse transcribed into cDNA according to the method in Example 3.
(§7) A quantitative PCR amplification reaction was performed according to the method in Example 3.
(§8) 3.5. The Relative Expression Level was Calculated by the 2-ΔCt Method.
(§9) FIGS. 46-49 respectively show the results of delivering single-stranded small RNA PGY-sRNA-26 into different target tissues at various time points by gavage using lipids 93, 94, 96, and 100. FIGS. 50-54 respectively show the results of delivering single-stranded small RNA PGY-sRNA-26 into different target tissues at various time points by injection via the tail vein using lipids 94, 96, 98, 100, and 101.

[3] = Pharmacokinetic study of lipid-nucleic acid mixture, tail vein injection group, relative amount of PGY-sRNA-26 delivered to organs over time; assay type: in vivo, C57BL/6 male mice; details: injection via the tail vein; sampled at 3, 6, 9, 12, 24 hrs
Description: as §1, §2
as §3, with “administered or injected via the tail vein” for “administered”, “mouse. The oral dose was half that of the tail vein injection.” for “mouse.”
as §4
3) Intravenous injection group: Mice (n=15) were given 100 μl of the lipid-nucleic acid mixture prepared in step 2 by injection via the tail vein.
as §5, §6, §7, §8, §9

[4] = significant difference compared to the control, 100 μg lipid:1 nmol PGY-sRNA-26, 12 hrs

1-palmitoyl-2-hydroxy-sn-glycero-3-phosphate (sodium salt) [Lipid 96]
oral delivery of sRNA single-chain nucleic acid into the blood, and lung, kidney, spleen, heart, and intestinal tissue of mice [1]: can effectively orally deliver | number of organs into which nucleic acid is significantly delivered [1]: two organs | oral delivery of sRNA single-stranded nucleic acid into the kidney tissue of mice [1, 4]: can significantly efficiently orally deliver | oral delivery of sRNA single-stranded nucleic acid into the spleen tissue of mice [1, 4]: can significantly efficiently orally deliver | time at which amount of nucleic acid delivered into the intestinal tissue reaches a maximum value [2]: 3 h | time at which amount of nucleic acid delivered into the kidney tissue reaches a maximum value [2]: 3 h | time at which amount of nucleic acid delivered into the brain tissue reaches a maximum value [3]: 6 h | time at which amount of nucleic acid delivered into the heart tissue reaches a maximum value [3]: 9 h | time at which amount of nucleic acid delivered into the intestinal tissue reaches a maximum value [3]: 6 h | time at which amount of nucleic acid delivered into the kidney tissue reaches a maximum value [3]: 3 h | time at which amount of nucleic acid delivered into the liver tissue reaches a maximum value [3]: 3 h | time at which amount of nucleic acid delivered into the lung tissue reaches a maximum value [3]: 6 h

1-O-octadecyl-2-hydroxy-sn-glycero-3-phosphocholine [Lipid 94]
oral delivery of sRNA single-chain nucleic acid into the blood, and lung, kidney, spleen, heart, and intestinal tissue of mice [1]: can effectively orally deliver | number of organs into which nucleic acid is significantly delivered [1]: two organs | oral delivery of sRNA single-stranded nucleic acid into the kidney tissue of mice [1, 4]: can significantly efficiently orally deliver | oral delivery of sRNA single-stranded nucleic acid into the lung tissue of mice [1, 4]: can significantly efficiently orally deliver | time at which amount of nucleic acid delivered into the brain tissue reaches a maximum value [2]: 3 h | time at which amount of nucleic acid delivered into the gastric tissue reaches a maximum value [2]: 3 h | time at which amount of nucleic acid delivered into the heart tissue reaches a maximum value [2]: 3 h | time at which amount of nucleic acid delivered into the intestinal tissue reaches a maximum value [2]: 3 h | time at which amount of nucleic acid delivered into the kidney tissue reaches a maximum value [2]: 9 h | time at which amount of nucleic acid delivered into the lung tissue reaches a maximum value [2]: 9 h | time at which amount of nucleic acid delivered into the spleen tissue reaches a maximum value [2]: 3 h | time at which amount of nucleic acid delivered into the brain tissue reaches a maximum value [3]: 6 h | time at which amount of nucleic acid delivered into the gastric tissue reaches a maximum value [3]: 3 h | time at which amount of nucleic acid delivered into the intestinal tissue reaches a maximum value [3]: 6 h | time at which amount of nucleic acid delivered into the kidney tissue reaches a maximum value [3]: 9 h | time at which amount of nucleic acid delivered into the spleen tissue reaches a maximum value [3]: 6 h

CCCCCCCCC/C=C/[C@@H](O)[C@@H](N)CO [Lipid 99, D-erythro-sphingosine (C14 group)]
oral delivery of sRNA single-chain nucleic acid into the blood, and lung, kidney, spleen, heart, and intestinal tissue of mice [1]: can effectively orally deliver | oral delivery of sRNA single-stranded nucleic acid into the spleen tissue of mice [1, 4]: can significantly efficiently orally deliver

N-stearoyl-D-erythro-sphingosylphosphocholine [Lipid 104]
oral delivery of sRNA single-chain nucleic acid into the blood, and lung, kidney, spleen, heart, and intestinal tissue of mice [1]: can effectively orally deliver | oral delivery of sRNA single-stranded nucleic acid into the blood of mice [1, 4]: can significantly efficiently orally deliver

CCCCCCCC/C=C\CCCCCCCC(=O)OC[C@H](COP(=O)(O)OCCN)OC(=O)CCCCCCC/C=C\CCCCCCCC [Lipid 72, 1,2-dioleoyl-sn-glycero-3-phosphatidylethanolamine]
oral delivery of sRNA single-chain nucleic acid into the blood, and lung, kidney, spleen, and heart tissues of mice [1]: can effectively orally deliver | oral delivery of sRNA single-stranded nucleic acid into the lung tissue of mice [1, 4]: can significantly efficiently orally deliver

1,2-stearin-3-olein [Lipid 77]
oral delivery of sRNA single-chain nucleic acid into the blood, and lung, kidney, spleen, and heart tissues of mice [1]: can effectively orally deliver | oral delivery of sRNA single-stranded nucleic acid into the spleen tissue of mice [1, 4]: can significantly efficiently orally deliver

CCCCCCCC/C=C\CCCCCCCC(=O)OC[C@H](COP(=O)([O-])OCC(O)CO)OC(=O)CCCCCCC/C=C\CCCCCCCC.[Na+] (stereo partly shown) [Lipid 81, 1,2-dioleoyl-sn-glycero-3-phosphatidylglycerol sodium salt]
oral delivery of sRNA single-chain nucleic acid into the blood, and lung, kidney, spleen, and heart tissues of mice [1]: can effectively orally deliver | oral delivery of sRNA single-stranded nucleic acid into the spleen tissue of mice [1, 4]: can significantly efficiently orally deliver

CCCCCCCCCCC/C=C/[C@@H](O)[C@@H](N)CO [Lipid 100, D-erythro-sphingosine (C16 group)]
oral delivery of sRNA single-chain nucleic acid into the blood, and lung, kidney, spleen, heart, and intestinal tissue of mice [1]: can effectively orally deliver | oral delivery of sRNA single-stranded nucleic acid into the spleen tissue of mice [1, 4]: can significantly efficiently orally deliver

CCCCCCCCC=CCCCCCCCC(=O)OCC(COC(=O)CCCCCCCCCCCCCCCCCCCCC)OC(=O)CCCCCCCC=CCCCCCCCC (stereo not shown) [Lipid 79, 1,2-olein-3-behenin]
oral delivery of sRNA single-chain nucleic acid into the blood, and lung, kidney, spleen, and heart tissues of mice [1]: can effectively orally deliver | oral delivery of sRNA single-stranded nucleic acid into the spleen tissue of mice [1, 4]: can significantly efficiently orally deliver

CCCCCCCC/C=C\CCCCCCCC(=O)O[C@H](COC(=O)CCCCCCCCCCCCCCC)COP(=O)([O-])OCC[N+](C)(C)C [Lipid 118, 1-palmitoyl-2-oleoyl-sn-glycero-3-phosphatidylcholine]
oral delivery of sRNA single-chain nucleic acid into the blood, and lung, kidney, spleen, heart, and intestinal tissue of mice [1]: can effectively orally deliver
